Laboratory results as given in PubChem BioAssay AID248 (DTP/NCI, 2004).
Values joined by “and” are separate entries in the source; they are usually repeats but may differ in a detail not shown here. Identical values can stand only once. Toxic doses and inconclusive results are not listed. No stated cut-off is given here; in the data, active means T/C of 150% or more; inactive means T/C below 125%.

System: L1210 leukemia ip in BDF1 mice, survival T/C
Experiment: NCI In Vivo Anticancer Drug Screen. Data for tumor model L1210 Leukemia (intraperitoneal) in B6D2F1 (BDF1) mice
Conditions: endpoint: mean survival time, higher = longer survival
How it was run: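 Survival endpoint. Drug-treated group vs vehicle group, expressed as T divided by C. Tumor passaged by transplantation.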

[1] = dose: 100.0 mg/kg/injection, schedule: Q01DX009 (ip), vehicle: saline with Tween-80
[2] = dose: 200.0 mg/kg/injection, schedule: Q01DX009 (ip), vehicle: saline with Tween-80
[3] = dose: 400.0 mg/kg/injection, schedule: Q01DX009 (ip), vehicle: saline with Tween-80
[4] = dose: 100.0 mg/kg/injection, schedule: Q04DX003 (ip), vehicle: Klucel (hydroxypropylcellulose) (HPC)
[5] = dose: 200.0 mg/kg/injection, schedule: Q04DX003 (ip), vehicle: Klucel (hydroxypropylcellulose) (HPC)
[6] = dose: 400.0 mg/kg/injection, schedule: Q04DX003 (ip), vehicle: Klucel (hydroxypropylcellulose) (HPC)
[7] = dose: 100.0 mg/kg/injection, schedule: Q01DX009 (ip), vehicle: saline
[8] = dose: 100.0 mg/kg/injection, schedule: Q04DX003 (ip), vehicle: saline
[9] = dose: 200.0 mg/kg/injection, schedule: Q01DX009 (ip), vehicle: saline
[10] = dose: 200.0 mg/kg/injection, schedule: Q04DX003 (ip), vehicle: saline
[11] = dose: 400.0 mg/kg/injection, schedule: Q01DX009 (ip), vehicle: saline
[12] = dose: 400.0 mg/kg/injection, schedule: Q04DX003 (ip), vehicle: saline
[13] = dose: 100.0 mg/kg/injection, schedule: Q04DX003 (ip), vehicle: saline with Tween-80
[14] = dose: 200.0 mg/kg/injection, schedule: Q04DX003 (ip), vehicle: saline with Tween-80
[15] = dose: 400.0 mg/kg/injection, schedule: Q04DX003 (ip), vehicle: saline with Tween-80
[16] = dose: 25.0 mg/kg/injection, schedule: Q04DX002 (ip), vehicle: saline
[17] = dose: 50.0 mg/kg/injection, schedule: Q04DX002 (ip), vehicle: saline
[18] = dose: 50.0 mg/kg/injection, schedule: Q01DX009 (ip), vehicle: saline with Tween-80

Measured: T/C

CCOC(=O)C(=O)Nc1onc(C)c1NC(=O)C(=O)OCC
inactive: [1] 89 % of control | [2] 89 % of control | [3] 92 % of control

CCCCCCCCCCCCCC(=O)OCCC(C)C
inactive: dose: 222.0 mg/kg/injection, schedule: Q01DX Z (ip), vehicle: saline 105 % of control | dose: 333.0 mg/kg/injection, schedule: Q01DX Z (ip), vehicle: saline 95 % of control | dose: 500.0 mg/kg/injection, schedule: Q01DX Z (ip), vehicle: saline 102 % of control

Cc1cc(Cl)ccc1NC(=O)Nc1ccc(Cl)c(Cl)c1
inactive: [4] 88 % of control | [5] 90 % of control | [6] 98 % of control and 88 % of control

COC(=O)C1(C)CCC(c2ccc(C)cc2)=C(CC(=O)O)C1 (configuration not stated)
inactive: [7] 115 % of control | [8] 100 % of control | [9] 97 % of control | [10] 96 % of control | [11] 95 % of control | [12] 115 % of control

CCCC#CCCCN1CCC2(CC1)C(=O)NCN2c1ccccc1
inactive: dose: 20.0 mg/kg/injection, schedule: Q04DX003 (ip), vehicle: Klucel (hydroxypropylcellulose) (HPC) 103 % of control | dose: 40.0 mg/kg/injection, schedule: Q04DX003 (ip), vehicle: Klucel (hydroxypropylcellulose) (HPC) 103 % of control | dose: 80.0 mg/kg/injection, schedule: Q04DX003 (ip), vehicle: Klucel (hydroxypropylcellulose) (HPC) 91 % of control | [4] 93 % of control

O=C(COc1ccc(Cl)cc1Cl)Oc1c(Cl)c(Cl)c(Cl)c(Cl)c1Cl
inactive: [1] 88 % of control | [13] 91 % of control | [2] 88 % of control | [14] 92 % of control | [3] 92 % of control | [15] 86 % of control

CCC(COC(=O)c1ccc(N(CC)CC)cc1)NC1CCCCC1 (configuration not stated)
inactive: dose: 75.0 mg/kg/injection, schedule: Q01DX001 (ip), vehicle: carboxymethylcellulose (CMC) 95 % of control | dose: 150.0 mg/kg/injection, schedule: Q01DX001 (ip), vehicle: carboxymethylcellulose (CMC) 95 % of control | dose: 300.0 mg/kg/injection, schedule: Q01DX001 (ip), vehicle: carboxymethylcellulose (CMC) 94 % of control

Nc1nc(SCCc2ccccc2)c2[nH]cnc2n1
inactive: dose: 125.0 mg/kg/injection, schedule: Q01DX Z (ip), vehicle: carboxymethylcellulose (CMC) 97 % of control | dose: 200.0 mg/kg/injection, schedule: Q01DX Z (ip), vehicle: carboxymethylcellulose (CMC) 123 % of control | dose: 250.0 mg/kg/injection, schedule: Q01DX Z (ip), vehicle: carboxymethylcellulose (CMC) 100 % of control | dose: 500.0 mg/kg/injection, schedule: Q01DX Z (ip), vehicle: carboxymethylcellulose (CMC) 106 % of control | dose: 1000.0 mg/kg/injection, schedule: Q01DX Z (ip), vehicle: carboxymethylcellulose (CMC) 93 % of control

COC(=O)c1cc(Br)ccc1OCC(=O)Nc1ccccc1
inactive: [13] 94 % of control | [14] 94 % of control | [15] 91 % of control

CN(CCCN)CCCN
inactive: [16] 115 % of control | [17] 96 % of control | dose: 100.0 mg/kg/injection, schedule: Q04DX002 (ip), vehicle: saline 100 % of control and 104 % of control

O=C(O)C(Cc1cccs1)c1ccccc1 (configuration not stated)
inactive: dose: 50.0 mg/kg/injection, schedule: Q04DX003 (ip), vehicle: carboxymethylcellulose (CMC) 98 % of control | dose: 100.0 mg/kg/injection, schedule: Q04DX003 (ip), vehicle: carboxymethylcellulose (CMC) 106 % of control | dose: 200.0 mg/kg/injection, schedule: Q04DX003 (ip), vehicle: carboxymethylcellulose (CMC) 106 % of control

c1cc[c]([Sn]([c]2ccccc2)([c]2ccccc2)[CH]2CCCCC2)cc1
inactive: [8] 89 % of control | [10] 93 % of control | [12] 89 % of control

Cc1cccc(N)n1
inactive: [16] 89 % of control | [17] 92 % of control

OCCC1=CCCCC1
inactive: [13] 97 % of control | [14] 95 % of control | [15] 93 % of control

C=C(C)C1CCC2(C(=O)O)CCC3(C)C(CCC4C5(C)CCC(O)C(C)(C)C5CCC43C)C12 (configuration not stated)
inactive: [4] 104 % of control | [5] 97 % of control | [6] 96 % of control

Nc1ccc(N=Nc2ccc(S(N)(=O)=O)cc2)c(N)n1
inactive: dose: 100.0 mg/kg/injection, schedule: Q01DX001 (ip), vehicle: saline 107 % of control | dose: 200.0 mg/kg/injection, schedule: Q01DX001 (ip), vehicle: saline 114 % of control | dose: 400.0 mg/kg/injection, schedule: Q01DX001 (ip), vehicle: saline 104 % of control

CCC(C)(C)c1ccc(O)c(C(=O)O)c1
inactive: dose: 100.0 mg/kg/injection, schedule: Q01DX001 (ip), vehicle: carboxymethylcellulose (CMC) 90 % of control | dose: 200.0 mg/kg/injection, schedule: Q01DX001 (ip), vehicle: carboxymethylcellulose (CMC) 95 % of control

CC(=O)Nc1ccc2ccccc2c1-c1c(NC(C)=O)ccc2ccccc12
inactive: dose: 25.0 mg/kg/injection, schedule: Q04DX002 (ip), vehicle: saline with Tween-80 97 % of control | dose: 50.0 mg/kg/injection, schedule: Q04DX002 (ip), vehicle: saline with Tween-80 90 % of control

Cc1ccc2nc3c(cc(F)c4ccccc43)c(C)c2c1
inactive: [18] 105 % of control | [1] 87 % of control

Cc1nc(-c2ccc(N=Cc3ccc(N(CCOS(C)(=O)=O)CCOS(C)(=O)=O)cc3C)cc2)c(C)s1
inactive: dose: 5.0 mg/kg/injection, schedule: Q01DX009 (ip), vehicle: Klucel (hydroxypropylcellulose) (HPC) 120 % of control | dose: 10.0 mg/kg/injection, schedule: Q01DX009 (ip), vehicle: Klucel (hydroxypropylcellulose) (HPC) 120 % of control | dose: 20.0 mg/kg/injection, schedule: Q01DX001 (ip), vehicle: Klucel (hydroxypropylcellulose) (HPC) 121 % of control | dose: 26.6 mg/kg/injection, schedule: Q01DX001 (ip), vehicle: Klucel (hydroxypropylcellulose) (HPC) 108 % of control | dose: 40.0 mg/kg/injection, schedule: Q01DX001 (ip), vehicle: Klucel (hydroxypropylcellulose) (HPC) 119 % of control | dose: 60.0 mg/kg/injection, schedule: Q01DX001 (ip), vehicle: Klucel (hydroxypropylcellulose) (HPC) 111 % of control

O=C(Nc1nccs1)Nc1ccc(Cl)cc1Cl
inactive: [18] 91 % of control | [1] 98 % of control | [2] 109 % of control

CC(=O)OCCCCBr
inactive: [7] 100 % of control | [4] 98 % of control | [9] 98 % of control | [5] 91 % of control | [11] 98 % of control | [6] 94 % of control

CCCCCCCCCCCCCCCC(=O)Nc1ccc(C(=O)C[n+]2ccc3c(NC(=O)CCC(=O)OC)cccc3c2)cc1
inactive: dose: 75.0 mg/kg/injection, schedule: Q01DX001 (ip), vehicle: other 86 % of control | dose: 150.0 mg/kg/injection, schedule: Q01DX001 (ip), vehicle: other 95 % of control

O=C(OC(C1COCO1)C(O)C1COCO1)c1ccccc1 (configuration not stated)
inactive: dose: 100.0 mg/kg/injection, schedule: Q01DX001 (ip), vehicle: Klucel (hydroxypropylcellulose) (HPC) 96 % of control | dose: 200.0 mg/kg/injection, schedule: Q01DX001 (ip), vehicle: Klucel (hydroxypropylcellulose) (HPC) 105 % of control | dose: 400.0 mg/kg/injection, schedule: Q01DX001 (ip), vehicle: Klucel (hydroxypropylcellulose) (HPC) 107 % of control

CCCCCCCCCCC(CCCCCCCCCC)CC(C)(C)C
inactive: dose: 50.0 mg/kg/injection, schedule: Q01DX001 (ip), vehicle: saline with Tween-80 103 % of control | dose: 100.0 mg/kg/injection, schedule: Q01DX001 (ip), vehicle: saline with Tween-80 96 % of control | dose: 200.0 mg/kg/injection, schedule: Q01DX001 (ip), vehicle: saline with Tween-80 103 % of control

CCC(=O)/C=C/C1C(C)=CCCC1(C)C (configuration not stated)
inactive: [1] 86 % of control | [8] 100 % of control | [2] 90 % of control | [10] 102 % of control | [12] 100 % of control

CCCCCSP(=O)(SCCCCC)c1ccccc1
inactive: dose: 100.0 mg/kg/injection, schedule: Q01DX009 (ip), vehicle: Klucel (hydroxypropylcellulose) (HPC) 91 % of control | dose: 200.0 mg/kg/injection, schedule: Q01DX009 (ip), vehicle: Klucel (hydroxypropylcellulose) (HPC) 94 % of control
